Reference: patent publication EP4786487A1, “PEPTIDE” (Peptidream Inc, priority 2023, dated 2025)
Where two headings read alike, the source gives them in different places. Positions of bridges follow the written chain, without caps; N, C: chain ends. Non-standard residues stand in square brackets, D forms with d. Residues, ends and D or L forms follow the SMILES beside them. *: point of attachment. Phe(3-OCH2COOH) = N[C@@H](Cc1cccc(OCC(=O)O)c1)C(=O)O; Phe(4-COOH) = N[C@@H](Cc1ccc(C(=O)O)cc1)C(=O)O; Piperazinyl(4-CH2COOH) = O=C(O)CN1CCN(*)CC1; Gly(decyl) = CCCCCCCCCC[C@H](N)C(=O)O; Gly(N(CH2)3COOH) = O=C(O)CCCNCC(=O)O; NMeF = CN[C@@H](Cc1ccccc1)C(=O)O; NMeE = CN[C@@H](CCC(=O)O)C(=O)O; Cha = N[C@@H](CC1CCCCC1)C(=O)O; NMeA = CN[C@@H](C)C(=O)O; Sar = CNCC(=O)O

Key:
[1] = target: T1, Myostatin (Homo sapiens, UniProt O14793); test: Reporter gene assay for myostatin signaling in HepG2 cell line, Evaluation Procedure (1), myostatin inhibition; format: cell-based; details: read-out: IC50 (Luciferase) Myostatin HepG2
T1 construct: active myostatin (also called mature myostatin) is a homodimer consisting of two C-terminal growth factor domains; purchased R&D systems 788-G8/CF
T1 sequence (O14793 267-375): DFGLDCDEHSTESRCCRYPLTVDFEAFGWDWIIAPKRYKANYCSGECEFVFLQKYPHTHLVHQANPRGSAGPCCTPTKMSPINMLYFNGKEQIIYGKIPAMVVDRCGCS
How it was run: (§1)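 IC50 derived from One-Glo luciferase luminescence after 20–24 h at 37 °C. Peptides titrated 4-fold at 0.006–100 nmol/L against myostatin or 0.12–2000 nmol/L against GDF-11 in HepG2 cells carrying a transfected CAGA12-luciferase reporter, kept in 0.1% BSA EMEM.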

[2] = tested on: Myostatin; test: as above; format: cell-based; details: GDF-11 IC50 versus Myostatin IC50
How it was run: as §1

[3] = target: T2, GDF-11 (Homo sapiens, UniProt O95390); test: Reporter gene assay for myostatin signaling in HepG2 cell line, Evaluation Procedure (1), GDF-11 inhibition; format: cell-based; details: read-out: IC50 (Luciferase) GDF-11 HepG2
T2 construct: purchased R&D systems 1958-GD-G8/CF
T2 sequence (O95390 299-407): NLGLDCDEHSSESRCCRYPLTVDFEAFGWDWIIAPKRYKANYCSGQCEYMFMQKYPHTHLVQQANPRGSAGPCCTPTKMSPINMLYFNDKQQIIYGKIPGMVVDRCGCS
How it was run: as §1

[4] = Distribution of peptide in skeletal muscle (plasma and quadriceps concentrations); format: in vivo; details: mouse, sc, 10 mg/kg subcutaneously, male CD1 mice; for level at 24 h: 24 hr after administration; for level at 48 h: 48 hr after administration; for level at 72 h: 72 hr after administration
Experimental: The peptide Myostatin_99_Variant_07 (SEQ ID NO: 3), synthesized according to Example 1, was administered subcutaneously at 10 mg/kg to male 6-8-week-old CD1 mice. Plasma and quadriceps concentrations were measured at 24, 48, and 72 hours after administration. […]
Note that plasma was separated from blood by centrifugation; 25% homogenate of tissue was prepared and deproteinized with 5% formic acid-containing acetonitrile; and the drug concentrations were determined using an LC/MS/MS system (LCMS-8060, Shimadzu Corporation).

[5] = tested on: B10 mdx model mice; test: Improvement of muscle strength and inhibition of muscle necrosis in B10 mdx mice; format: in vivo, C57BL/10-mdx/Jcl mice; details: 10 mg/kg subcutaneous
Experimental: (§2) In this Example, the effect of the peptide Myostatin_99_Variant_07 (SEQ ID NO: 3), synthesized according to Example 1, on improvement of muscle strength in DMD model mice was evaluated using B10 mdx model mice (NPL 17).
(§3) To five-week-old male C57BL/10-mdx/Jcl (CLEA Japan, Inc.) mice, the peptide or solvent control (Vehicle) PBS was subcutaneously administered as shown in Table 11 three times a week or every day for 5 weeks.
(§4) Using a smart-type grip strength meter for rats and mice (MK-380V; Muromachi Kikai Co., Ltd.), forelimb and hindlimb grip strength measurements and body weight measurements were performed on the day of completion of the acclimation period (grouping day), and on Days 7, 14, 21, 27, and 33. The measurements were conducted with individual identification numbers blinded so that the examiner was unaware of the test conditions of the mice. The grip strength was measured seven times consecutively, and the average of five points, excluding the two points: the highest and lowest values, was used as individual data. The body weight was weighed using an electronic balance.
(§5) Serum creatine kinase (CK) concentrations (mean ± SEM) on Day 35, when the animals were euthanized, were also examined.

[6] = Muscle strength, body weight and serum creatine kinase in B10 mdx mice; format: in vivo, C57BL/10-mdx/Jcl mice; details: 10 mg/kg subcutaneous
Experimental: as §2, §3, §4, §5

[7] = target: T1, Myostatin; test: HepG2 reporter gene assay, Evaluation Procedure (2): 2-concentrations assay, myostatin inhibition; format: cell-based; details: Myostatin 10 ng/mL, HepG2; for inhibition at 0.03 µM: peptide 30nM, read-out: Myostatin Inhibition 30nM; for inhibition at 0.1 µM: peptide 100nM, read-out: Myostatin Inhibition 100nM
How it was run: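 Myostatin inhibition was measured in a luciferase reporter assay using HepG2 cells transfected with a pGL3 vector containing 12 CAGA repeats upstream of luciferase. After 20 to 24 hours with 10 ng/mL myostatin, cells received One-Glo:PBS (1:1) at 100 µL/well, were shaken for 5 min, and 20 µL/well was moved to 384-well plates and read on an Envision 2104.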

[8] = plasma, read-out: Plasma concentration
[9] = quadriceps muscle, quadriceps, read-out: Intramuscular concentration

## CC[C@H](C)[C@@H]1NC(=O)[C@H](Cc2ccccc2)N(C)C(=O)[C@H](Cc2ccc(O)cc2)NC(=O)[C@H](Cc2c[nH]c3ccccc23)NC(=O)[C@H](C)NC(=O)CN(CCCC(=O)O)C(=O)CSC[C@H](C(=O)O)NC(=O)[C@H](Cc2ccccc2)N(C)C(=O)[C@H](C)N(C)C(=O)[C@H](CC(C)C)NC(=O)[C@H](Cc2ccccc2)N(C)C(=O)[C@H](CCCNC(=N)N)NC(=O)[C@H](Cc2ccc(C(=O)O)cc2)NC(=O)[C@H](Cc2ccc(O)cc2)NC(=O)CN(C)C1=O [Myostatin_99_Variant_07] ({CH2CO}-[Gly(N(CH2)3COOH)]AWY[NMeF]I[Sar]Y[Phe(4-COOH)]R[NMeF]L[NMeA][NMeF][dC]-OH; thioether N-15)
[1]; Method A: Myostatin 10 ng/mL
  IC50: 26.2 nM
[2]; Method A
  Selectivity: 40
[3]; Method A: GDF-11 10 ng/mL
  IC50: 1050 nM
[4]; [8]
  level at 24 h: 232 ng/mL
  level at 48 h: 55 ng/mL
  level at 72 h: 40 ng/mL
[4]; [9]
  level at 24 h: 283 ng/mL
  level at 48 h: 190 ng/mL
  level at 72 h: 74 ng/mL
[5]; 3 times a week, vs. PBS Vehicle group, Fig. 3
  time-course change in grip strength: continuous increase in grip strength
[5]; 3 times a week, vs. Vehicle group, Fig. 4
  time-course change in body weight: body weight to continuously increase
[5]; Day 35, Vehicle group 3,836 ± 754 IU/L
  Serum creatine kinase (CK) concentrations (mean ± SEM): 3,247 ± 558 IU/L
[6]; vs. PBS (Fig. 3)
  time-course change in grip strength: continuous increase in grip strength was observed
[6]; vs. Vehicle (Fig. 4)
  time-course change in body weight: cause the body weight to continuously increase

## CCCCCCCCCC[C@@H]1NC(=O)[C@H](CC2CCCCC2)NC(=O)[C@H](CCCNC(=N)N)NC(=O)[C@H](Cc2ccc(C(=O)O)cc2)NC(=O)[C@H](Cc2cccc(OCC(=O)O)c2)NC(=O)CN(C)C(=O)[C@H]([C@@H](C)CC)NC(=O)[C@H](Cc2ccccc2)N(C)C(=O)[C@H](Cc2ccc(O)cc2)NC(=O)[C@H](Cc2c[nH]c3ccccc23)NC(=O)[C@H](C)NC(=O)[C@H](C)NC(=O)CSC[C@H](C(=O)N2CCN(CC(=O)O)CC2)NC(=O)[C@H](Cc2ccccc2)N(C)C(=O)[C@H](CCC(=O)O)N(C)C1=O [Myostatin_99_v261] ({CH2CO}-AAWY[NMeF]I[Sar][Phe(3-OCH2COOH)][Phe(4-COOH)]R[Cha][Gly(decyl)][NMeE][NMeF][dC]-{Piperazinyl(4-CH2COOH)}; thioether N-15)
[1]; Method B: Myostatin 1 ng/mL
  IC50: 0.16 nM
[2]; Method B
  Selectivity: 181
[3]; Method B: GDF-11 1 ng/mL
  IC50: 29 nM
[7]
  inhibition at 0.03 µM: 26%
  inhibition at 0.1 µM: 72%

## CCCCCCCCCC[C@@H]1NC(=O)[C@H](Cc2ccccc2)N(C)C(=O)[C@H](CCCNC(=N)N)NC(=O)[C@H](Cc2ccc(C(=O)O)cc2)NC(=O)[C@H](Cc2cccc(OCC(=O)O)c2)NC(=O)CN(C)C(=O)[C@H]([C@@H](C)CC)NC(=O)[C@H](Cc2ccccc2)N(C)C(=O)[C@H](Cc2ccc(O)cc2)NC(=O)[C@H](Cc2c[nH]c3ccccc23)NC(=O)[C@H](C)NC(=O)[C@H](C)NC(=O)CSC[C@H](C(=O)N2CCN(CC(=O)O)CC2)NC(=O)[C@H](Cc2ccccc2)N(C)C(=O)[C@H](CCC(=O)O)N(C)C1=O [Myostatin_99_v265] ({CH2CO}-AAWY[NMeF]I[Sar][Phe(3-OCH2COOH)][Phe(4-COOH)]R[NMeF][Gly(decyl)][NMeE][NMeF][dC]-{Piperazinyl(4-CH2COOH)}; thioether N-15)
[1]; Method B: Myostatin 1 ng/mL
  IC50: 0.1 nM
[2]; Method B
  Selectivity: 55
[3]; Method B: GDF-11 1 ng/mL
  IC50: 5.3 nM
[7]
  inhibition at 0.03 µM: 91%
  inhibition at 0.1 µM: 98%
